Data: article PMC11279404, “Discovery of 1H-benzo[d]imidazole-(halogenated)Benzylidenebenzohydrazide Hybrids as Potential Multi-Kinase Inhibitors” (Pharmaceuticals, 2024)

Legend:
[1] = tested on: HCT-116 (human colon cancer cell line); test: MTT in vitro cytotoxicity, HCT-116; assay type: cell-based; conditions: for IC50: Homo sapiens, HCT-116, MTT, mean ± SD of triplicate; for SI (Selectivity Index) HCT-116: IC50 of WI-38 / IC50 of HCT-116
[2] = tested on: HepG2 (hepatocellular carcinoma cell line); test: MTT in vitro cytotoxicity, HepG2; assay type: cell-based, human; conditions: for IC50: Homo sapiens, HepG2, MTT, mean ± SD of triplicate; for SI (Selectivity Index) HepG2: IC50 of WI-38 / IC50 of HepG2
[3] = tested on: MCF-7 (mammary gland breast cancer cell line); test: MTT in vitro cytotoxicity, MCF-7; assay type: cell-based, human; conditions: for IC50: Homo sapiens, MCF7, MTT, mean ± SD of triplicate; for SI (Selectivity Index) MCF-7: IC50 of WI-38 / IC50 of MCF-7
[4] = MTT in vitro cytotoxicity, normal WI-38; assay type: cell-based; conditions: human, WI-38 normal lung fibroblast cells, normal cell line, mean ± SD of triplicate
VEGFR2 = VEGFR2 (Homo sapiens, UniProt P35968); test: In vitro protein kinase inhibition, VEGFR2; assay type: biochemical; conditions: mean ± SD of triplicate
From the text: […]. […] […].

HDAC1 = HDAC1 (Homo sapiens, UniProt Q13547); test: In vitro enzyme inhibition, HDAC1; assay type: biochemical; conditions: mean ± SD of triplicate; read-out: In Vitro Protein Kinase Inhibition IC50 HDAC1
[5] = tested on: cancer cell lines (HCT-116, HepG2, MCF-7); test: MTT in vitro cytotoxicity, summary across the cancer cell line panel; assay type: cell-based; conditions: Homo sapiens; summary over HCT-116, HepG2, MCF-7; read-out: IC50 values across the tested cancer cell lines
Method: The cytotoxic activities of compounds 6a-l were assessed using a standard MTT method, which was performed across three different cancer cell line models, namely human colon cancer (HCT-116), hepatocellular carcinoma (HepG2), mammary gland cancer (MCF-7), and normal (WI-38) cell lines. […] […]. Substitution at the 4-position, as in the case of compounds 6d, 6g, and 6j, also seems beneficial, with fluoro (6j) showing the best results. […]. Overall, the cytotoxicity data provide valuable insights into the structure–activity relationships of the synthesized compounds and can guide further optimization efforts to develop potential anticancer agents with improved potency and selectivity.
. The SI values represent the ratio of the IC50 values for the normal WI-38 cell line compared with the respective cancer cell lines, with higher SI values indicating greater selectivity for the cancer cells over normal cells. […]. The cytotoxic potential of compounds 6a-l was evaluated against a panel of cancer cell lines, including HCT-116, HepG2, and MCF-7, as well as a normal cell line, WI-38, using the reported methodology. The cell lines utilized in this study were obtained from the American Type Culture Collection (ATCC) through the Holding Company for Biological Products and Vaccines (VACSERA) in Cairo, Egypt. These included: 1. A human colon cancer cell line (HCT-116); 2. Hepatocellular carcinoma (HepG2)—a liver cancer cell line; 3. Mammary gland breast cancer (MCF-7); and 4. A human lung fibroblast (WI-38)—a normal cell line.

mTOR = mTOR (Homo sapiens, UniProt P42345); test: In vitro enzyme inhibition, mTOR
EGFR = EGFR (Homo sapiens, UniProt P00533); test: In vitro protein kinase inhibition, EGFR
Her2 = Her2 (Homo sapiens, UniProt P04626); test: In vitro protein kinase inhibition, Her2
CDK2 = CDK2 (Homo sapiens, UniProt P24941); test: In vitro protein kinase inhibition, CDK2
AURKC = molecular target: T1, AURKC (Homo sapiens, UniProt Q9UQB9); test: In vitro protein kinase inhibition, AURKC
T1 sequence (Q9UQB9 1-309): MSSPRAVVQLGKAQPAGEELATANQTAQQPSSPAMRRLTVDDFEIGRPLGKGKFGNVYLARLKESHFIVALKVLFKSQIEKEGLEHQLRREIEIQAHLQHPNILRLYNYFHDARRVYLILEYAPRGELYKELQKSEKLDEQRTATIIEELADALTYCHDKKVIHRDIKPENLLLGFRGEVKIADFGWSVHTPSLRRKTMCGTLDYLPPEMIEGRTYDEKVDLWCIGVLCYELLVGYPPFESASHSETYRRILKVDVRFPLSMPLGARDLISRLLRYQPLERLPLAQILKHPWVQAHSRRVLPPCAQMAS

caspase-3 = test: Apoptotic protein level by ELISA, caspase-3; assay type: cell-based, human; conditions: HepG2 cells
Method: (§1) To further elucidate the mechanism by which compound 6i induces cell death, the expression levels of key apoptotic proteins were assessed in the HepG2 cell line. […] Specifically, the levels of the pro-apoptotic proteins caspase-3 and Bax were markedly higher in the compound 6i-treated group compared with the control. […] Additional studies are warranted to elucidate the detailed molecular mechanisms underlying the apoptosis-inducing effects of compound 6i and to assess its therapeutic potential in relevant in vivo models.
(§2) Apoptotic protein levels for compound 6i were determined using an ELISA technique for caspase-3, BAX, and Bcl-2, applying a previously reported method.

Bax = test: Apoptotic protein level by ELISA, Bax; assay type: cell-based, human; conditions: HepG2 cells
Method: as §1, §2

Bcl-2 = test: Apoptotic protein level by ELISA, Bcl-2; assay type: cell-based, human; conditions: HepG2 cells, ELISA; control 15.668 ± 0.53; mean ± SD of triplicate

Sequence of HDAC1 (Q13547 whole entry): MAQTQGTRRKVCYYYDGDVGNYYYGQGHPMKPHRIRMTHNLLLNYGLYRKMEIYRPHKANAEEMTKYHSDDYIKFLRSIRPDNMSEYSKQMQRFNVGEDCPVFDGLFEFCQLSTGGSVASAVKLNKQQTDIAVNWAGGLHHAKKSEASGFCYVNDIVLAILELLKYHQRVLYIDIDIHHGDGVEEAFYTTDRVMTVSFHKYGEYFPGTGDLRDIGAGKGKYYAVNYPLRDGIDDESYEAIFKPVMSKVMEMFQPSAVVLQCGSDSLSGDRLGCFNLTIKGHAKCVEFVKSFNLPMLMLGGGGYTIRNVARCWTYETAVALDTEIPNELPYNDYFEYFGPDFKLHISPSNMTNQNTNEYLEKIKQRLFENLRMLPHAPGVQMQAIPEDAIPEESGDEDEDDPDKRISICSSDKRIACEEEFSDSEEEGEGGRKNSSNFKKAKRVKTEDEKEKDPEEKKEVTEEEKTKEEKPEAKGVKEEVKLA
Sequence of Her2 (P04626 23-1255): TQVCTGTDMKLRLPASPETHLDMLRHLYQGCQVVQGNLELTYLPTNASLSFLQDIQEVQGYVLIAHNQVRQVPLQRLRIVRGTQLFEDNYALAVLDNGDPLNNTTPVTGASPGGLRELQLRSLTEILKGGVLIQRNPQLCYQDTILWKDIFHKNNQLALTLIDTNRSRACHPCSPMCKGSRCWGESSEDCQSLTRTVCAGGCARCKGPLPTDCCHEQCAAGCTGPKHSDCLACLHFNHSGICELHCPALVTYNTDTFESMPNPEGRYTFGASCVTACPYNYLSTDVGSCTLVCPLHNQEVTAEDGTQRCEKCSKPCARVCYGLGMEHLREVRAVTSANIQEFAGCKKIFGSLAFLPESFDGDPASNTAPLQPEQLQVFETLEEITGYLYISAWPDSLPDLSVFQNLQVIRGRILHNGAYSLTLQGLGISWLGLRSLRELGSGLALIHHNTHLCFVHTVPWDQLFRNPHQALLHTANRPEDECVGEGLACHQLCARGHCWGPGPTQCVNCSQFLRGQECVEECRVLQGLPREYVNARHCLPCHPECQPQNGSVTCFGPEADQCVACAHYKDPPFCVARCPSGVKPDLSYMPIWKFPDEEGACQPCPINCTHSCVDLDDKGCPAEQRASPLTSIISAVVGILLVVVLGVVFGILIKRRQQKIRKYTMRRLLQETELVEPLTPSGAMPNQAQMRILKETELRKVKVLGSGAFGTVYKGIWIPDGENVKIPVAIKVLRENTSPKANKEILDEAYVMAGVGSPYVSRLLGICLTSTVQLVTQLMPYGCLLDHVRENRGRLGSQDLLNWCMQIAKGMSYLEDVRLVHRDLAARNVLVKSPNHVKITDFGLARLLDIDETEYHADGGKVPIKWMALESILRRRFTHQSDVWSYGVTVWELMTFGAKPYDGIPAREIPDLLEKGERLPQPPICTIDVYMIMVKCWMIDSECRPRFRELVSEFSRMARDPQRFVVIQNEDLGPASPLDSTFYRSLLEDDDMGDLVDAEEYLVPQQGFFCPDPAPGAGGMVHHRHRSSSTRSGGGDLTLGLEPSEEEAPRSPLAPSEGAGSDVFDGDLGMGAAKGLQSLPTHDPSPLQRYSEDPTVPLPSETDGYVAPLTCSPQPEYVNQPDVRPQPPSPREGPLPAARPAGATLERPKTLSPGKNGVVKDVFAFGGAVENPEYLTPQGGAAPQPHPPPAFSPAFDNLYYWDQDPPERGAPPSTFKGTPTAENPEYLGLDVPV
Sequence of EGFR (P00533 25-1210): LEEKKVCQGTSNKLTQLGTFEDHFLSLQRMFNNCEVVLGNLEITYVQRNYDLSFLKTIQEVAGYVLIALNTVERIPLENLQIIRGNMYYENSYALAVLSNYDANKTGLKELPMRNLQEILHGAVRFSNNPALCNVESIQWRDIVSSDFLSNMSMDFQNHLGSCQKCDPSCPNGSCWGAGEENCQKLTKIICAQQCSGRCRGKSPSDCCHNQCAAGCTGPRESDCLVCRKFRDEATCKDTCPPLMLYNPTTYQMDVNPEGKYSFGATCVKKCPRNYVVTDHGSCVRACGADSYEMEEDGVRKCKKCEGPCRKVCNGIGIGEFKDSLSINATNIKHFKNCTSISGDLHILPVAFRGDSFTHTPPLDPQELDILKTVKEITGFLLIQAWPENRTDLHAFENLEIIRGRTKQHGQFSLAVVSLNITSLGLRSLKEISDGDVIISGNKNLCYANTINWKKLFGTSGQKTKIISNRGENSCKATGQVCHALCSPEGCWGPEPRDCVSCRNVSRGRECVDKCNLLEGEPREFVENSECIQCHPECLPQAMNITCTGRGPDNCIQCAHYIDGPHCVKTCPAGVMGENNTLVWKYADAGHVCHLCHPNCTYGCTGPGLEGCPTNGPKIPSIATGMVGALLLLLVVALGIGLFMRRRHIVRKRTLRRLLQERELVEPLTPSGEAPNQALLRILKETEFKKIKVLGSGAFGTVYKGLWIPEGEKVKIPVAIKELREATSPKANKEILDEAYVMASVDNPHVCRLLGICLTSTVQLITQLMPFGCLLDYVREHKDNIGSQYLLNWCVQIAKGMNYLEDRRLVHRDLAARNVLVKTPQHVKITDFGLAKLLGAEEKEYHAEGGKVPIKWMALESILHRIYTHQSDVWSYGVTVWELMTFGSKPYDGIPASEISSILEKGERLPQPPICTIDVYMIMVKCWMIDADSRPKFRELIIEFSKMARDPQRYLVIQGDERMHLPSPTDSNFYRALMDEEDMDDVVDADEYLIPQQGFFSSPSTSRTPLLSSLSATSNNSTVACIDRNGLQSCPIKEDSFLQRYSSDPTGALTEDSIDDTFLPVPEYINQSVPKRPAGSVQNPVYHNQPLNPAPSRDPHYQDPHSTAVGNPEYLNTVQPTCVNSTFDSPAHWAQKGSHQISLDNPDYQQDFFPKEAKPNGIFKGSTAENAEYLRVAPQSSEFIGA
Sequence of VEGFR2 (P35968 20-1356): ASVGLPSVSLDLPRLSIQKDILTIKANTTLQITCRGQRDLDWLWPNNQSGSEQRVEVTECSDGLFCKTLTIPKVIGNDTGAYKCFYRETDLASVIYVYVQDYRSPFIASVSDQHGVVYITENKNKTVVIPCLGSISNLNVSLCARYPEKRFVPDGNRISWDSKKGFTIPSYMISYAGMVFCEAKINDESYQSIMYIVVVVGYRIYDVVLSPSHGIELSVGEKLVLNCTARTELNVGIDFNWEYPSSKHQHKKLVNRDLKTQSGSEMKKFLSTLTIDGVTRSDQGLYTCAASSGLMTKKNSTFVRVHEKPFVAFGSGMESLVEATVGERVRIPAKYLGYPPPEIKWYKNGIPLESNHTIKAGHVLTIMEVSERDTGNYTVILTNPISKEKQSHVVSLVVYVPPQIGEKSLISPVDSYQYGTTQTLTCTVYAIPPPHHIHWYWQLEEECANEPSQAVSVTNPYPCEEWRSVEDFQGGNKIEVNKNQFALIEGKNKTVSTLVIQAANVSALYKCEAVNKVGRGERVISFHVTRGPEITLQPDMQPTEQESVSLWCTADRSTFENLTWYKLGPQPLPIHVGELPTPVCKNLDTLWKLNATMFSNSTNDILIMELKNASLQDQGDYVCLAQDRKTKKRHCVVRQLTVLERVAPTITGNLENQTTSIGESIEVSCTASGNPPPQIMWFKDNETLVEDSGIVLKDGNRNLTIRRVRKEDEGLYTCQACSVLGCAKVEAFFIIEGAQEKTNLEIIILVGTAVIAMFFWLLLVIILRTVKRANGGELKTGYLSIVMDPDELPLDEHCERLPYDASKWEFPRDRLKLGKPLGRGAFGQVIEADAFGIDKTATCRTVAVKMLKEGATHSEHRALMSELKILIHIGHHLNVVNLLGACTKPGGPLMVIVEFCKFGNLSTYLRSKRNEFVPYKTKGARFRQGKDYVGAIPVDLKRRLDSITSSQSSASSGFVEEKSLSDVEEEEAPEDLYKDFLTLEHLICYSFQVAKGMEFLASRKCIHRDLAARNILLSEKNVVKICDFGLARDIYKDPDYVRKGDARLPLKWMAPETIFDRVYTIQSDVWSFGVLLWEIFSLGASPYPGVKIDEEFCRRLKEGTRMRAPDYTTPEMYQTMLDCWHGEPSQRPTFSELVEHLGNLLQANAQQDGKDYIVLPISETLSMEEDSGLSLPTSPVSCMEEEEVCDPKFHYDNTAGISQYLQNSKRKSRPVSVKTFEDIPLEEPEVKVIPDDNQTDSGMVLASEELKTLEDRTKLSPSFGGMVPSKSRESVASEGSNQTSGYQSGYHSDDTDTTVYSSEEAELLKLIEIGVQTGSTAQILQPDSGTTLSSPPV

Row | Structure (SMILES) | IC50 [1] | SI (Selectivity Index) HCT-116 [1] | IC50 [2] | SI (Selectivity Index) HepG2 [2] | IC50 [3] | SI (Selectivity Index) MCF-7 [3] | IC50 [4] | IC50 [5] | melting point | other results
1 | O=C(N/N=C/c1cccc(Br)c1)c1ccc(NCc2nc3ccccc3[nH]2)cc1 [6c, (E)-4-(((1H-benzo[d]imidazol-2-yl)methyl)amino)-N′-(3-bromobenzylidene)benzohydrazide] | 10.2 ± 0.8 µM | 4.72 | 8.9 ± 0.6 µM | 5.41 | 7.82 ± 0.6 µM | 6.16 | 48.2 ± 2.7 µM | 7.82 to 10.2 µM | 278 °C | IC50 (VEGFR2): 604.5 ± 0.022 nM; IC50 (HDAC1): 2263 ± 0.077 nM; IC50 (mTOR): 1461 ± 0.05 nM; IC50 (EGFR): 125.2 ± 0.041 nM; IC50 (Her2): 55.6 ± 0.023 nM; IC50 (CDK2): 938 ± 0.039 nM; IC50 (AURKC): 94.4 ± 0.036 nM
2 | CCN(CC)CCNC(=O)c1c(C)[nH]c(/C=C2\C(=O)Nc3ccc(F)cc32)c1C [Sunitinib, reference compound] | 17.9 ± 1.3 µM | – | 8.38 ± 0.5 µM | – | 24.1 ± 2 µM | – | 55.6 ± 3.3 µM | – | – | –
3 | O=C(N/N=C/c1ccc(Cl)cc1)c1ccc(NCc2nc3ccccc3[nH]2)cc1 [6g, (E)-4-(((1H-benzo[d]imidazol-2-yl)methyl)amino)-N′-(4-chlorobenzylidene)benzohydrazide] | 35.3 ± 2.3 µM | 2.02 | 24.9 ± 1.7 µM | 2.86 | 22.5 ± 1.6 µM | 3.16 | 71.2 ± 3.5 µM | > 20 µM | 290 °C | –
4 | O=C(N/N=C/c1ccccc1Br)c1ccc(NCc2nc3ccccc3[nH]2)cc1 [6b, (E)-4-(((1H-benzo[d]imidazol-2-yl)methyl)amino)-N′-(2-bromobenzylidene)benzohydrazide] | 42.9 ± 2.5 µM | 1.96 | 26.2 ± 1.9 µM | 3.22 | 31.8 ± 2.1 µM | 2.64 | 84.2 ± 4.3 µM | > 20 µM | 284 °C | –
5 | CN[C@@H]1C[C@H]2O[C@@](C)([C@@H]1OC)n1c3ccccc3c3c4c(c5c6ccccc6n2c5c31)C(=O)NC4 [Saurosporine, staurosporine, reference compound] | – | – | – | – | – | – | – | – | – | Protein Expression Caspase-3 (caspase-3; ELISA, control 99.904 ± 3.88, mean ± SD of triplicate): 541.162 ± 21.02 pg/mL; Protein Expression Caspase-3 (Folds) (caspase-3; relative to control (1)): 5.4 Folds; Protein Expression Bax (Bax; ELISA, control 71.075 ± 2.762, mean ± SD of triplicate): 386.743 ± 15.03 pg/mL; Protein Expression Bax (Folds) (Bax; relative to control (1)): 5.44 Folds; Protein Expression Bcl-2 (Bcl-2): 3.336 ± 0.11 pg/mL
6 | O=C(N/N=C/c1cc(F)ccc1F)c1ccc(NCc2nc3ccccc3[nH]2)cc1 [6l, (E)-4-(((1H-benzo[d]imidazol-2-yl)methyl)amino)-N′-(2,5-difluorobenzylidene)benzohydrazide] | 39.8 ± 2.2 µM | 1.95 | 20 ± 1.5 µM | 3.88 | 29.8 ± 2 µM | 2.60 | 77.6 ± 4.1 µM | > 20 µM | 160 °C | –
7 | O=C(N/N=C/c1ccc(Cl)cc1Cl)c1ccc(NCc2nc3ccccc3[nH]2)cc1 [6k, (E)-4-(((1H-benzo[d]imidazol-2-yl)methyl)amino)-N′-(2,4-dichlorobenzylidene)benzohydrazide] | 67.8 ± 3.8 µM | – | 44.8 ± 2.4 µM | – | 48.6 ± 2.7 µM | – | > 100 µM | > 20 µM | 294 °C | –
8 | O=C(N/N=C/c1ccc(F)cc1)c1ccc(NCc2nc3ccccc3[nH]2)cc1 [6j, (E)-4-(((1H-benzo[d]imidazol-2-yl)methyl)amino)-N′-(4-fluorobenzylidene)benzohydrazide] | 18.7 ± 1.4 µM | 2.08 | 14 ± 1.2 µM | 2.78 | 8.31 ± 0.7 µM | 4.70 | 39 ± 2.3 µM | < 30 µM | 291 °C | IC50 (VEGFR2): 307.2 ± 0.011 nM; IC50 (HDAC1): 473.3 ± 0.016 nM; IC50 (mTOR): 1305 ± 0.044 nM; IC50 (EGFR): 166.4 ± 0.008 nM; IC50 (Her2): 204.7 ± 0.009 nM; IC50 (CDK2): 1448 ± 0.062 nM; IC50 (AURKC): 589.4 ± 0.022 nM
9 | O=C(N/N=C/c1ccccc1F)c1ccc(NCc2nc3ccccc3[nH]2)cc1 [6h, (E)-4-(((1H-benzo[d]imidazol-2-yl)methyl)amino)-N′-(2-fluorobenzylidene)benzohydrazide] | 21.5 ± 1.6 µM | 4.33 | 12.9 ± 1 µM | 7.19 | 16.3 ± 1.2 µM | 5.70 | 93 ± 4.6 µM | < 30 µM | 289 °C | IC50 (VEGFR2): 194.5 ± 0.007 nM; IC50 (HDAC1): 151.1 ± 0.005 nM; IC50 (mTOR): 413 ± 0.014 nM; IC50 (EGFR): 73.2 ± 0.004 nM; IC50 (Her2): 23.2 ± 0.001 nM; IC50 (CDK2): 284 ± 0.012 nM; IC50 (AURKC): 11 ± 0.004 nM
10 | O=C(N/N=C/c1ccccc1Cl)c1ccc(NCc2nc3ccccc3[nH]2)cc1 [6e, (E)-4-(((1H-benzo[d]imidazol-2-yl)methyl)amino)-N′-(2-chlorobenzylidene)benzohydrazide] | 46.7 ± 2.7 µM | 1.33 | 28.8 ± 1.7 µM | 2.15 | 36.2 ± 2.3 µM | 1.71 | 61.9 ± 3.5 µM | > 20 µM | 289 °C | –
11 | O=C(N/N=C/c1ccccc1)c1ccc(NCc2nc3ccccc3[nH]2)cc1 [6a, (E)-4-(((1H-benzo[d]imidazol-2-yl)methyl)amino)-N′-benzylidenebenzohydrazide] | 24.6 ± 1.9 µM | 2.95 | 31.8 ± 2.2 µM | 2.29 | 26.3 ± 1.9 µM | 2.76 | 72.6 ± 4 µM | > 20 µM | 278 °C | –
12 | O=C(N/N=C/c1ccc(Br)cc1)c1ccc(NCc2nc3ccccc3[nH]2)cc1 [6d, (E)-4-(((1H-benzo[d]imidazol-2-yl)methyl)amino)-N′-(4-bromobenzylidene)benzohydrazide] | 30.3 ± 2.1 µM | 1.79 | 17.8 ± 1.3 µM | 3.05 | 25.2 ± 1.8 µM | 2.16 | 54.3 ± 3.1 µM | < 30 µM | 287 °C | –
13 | O=C(N/N=C/c1cccc(Cl)c1)c1ccc(NCc2nc3ccccc3[nH]2)cc1 [6f, (E)-4-(((1H-benzo[d]imidazol-2-yl)methyl)amino)-N′-(3-chlorobenzylidene)benzohydrazide] | 63.7 ± 3.5 µM | – | 34.8 ± 2.1 µM | – | 45.6 ± 2.5 µM | – | > 100 µM | > 20 µM | 271 °C | –
